Data from PMC4721062, “Oxadiazole-2-oxides may have other functional targets, in addition to SjTGR, through which they cause mortality in Schistosoma japonicum” (Parasites & Vectors, 2016).
Like-named read-outs stand apart in the source and are kept apart here.

How the values were obtained:
juvenile S. japonicum = assay: microbe, parasite or virus in culture; type: cell-based; details: for killing at 2 µM / killing at 5 µM / killing at 50 µM / Killing activity 24hr / Killing activity 48hr / Killing activity 72hr: juvenile worms; for Killing activity 24hr / Killing activity 48hr / Killing activity 72hr: 10 μM
How it was run: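 Juvenile S. japonicum, 20–30 tail-shed cercariae per well, were exposed to compounds at 2, 5, 10 and 50 μM in RPMI 1640 with 10% FBS and HEPES. Survival was scored microscopically at 24, 48 and 72 h, with death defined by disrupted internal structure or tegument or 1 min without motility. % D is dead/total, averaged over three experiments.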

adult S. japonicum = assay: microbe, parasite or virus in culture; type: cell-based; details: for killing at 25 µM / killing at 50 µM / killing at 100 µM / Killing activity 24hr / Killing activity 48hr / Killing activity 72hr: adult worms
How it was run: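 Adult worm pairs recovered by portal perfusion from ICR mice 35 days after infection with 50 cercariae, cultured in RPMI 1640 (pH 7.5, 20 mM HEPES, 10% FBS) at 37 °C, 5% CO2. Oxadiazole-2-oxides at 10, 25, 50, 100 μM; motility and survival scored microscopically at 24, 48, 72 h, death being no movement over 2 min; three independent experiments averaged.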

[1] = Schistosoma japonicum, 24 h, read-out: Mortality of juvenile worms
[2] = Schistosoma japonicum, 24 h, read-out: Killing activity 24hr
[3] = Schistosoma japonicum, 48 h, read-out: Killing activity 48hr
[4] = Schistosoma japonicum, 72 h, read-out: Killing activity 72hr
[5] = Schistosoma japonicum, 24 h, read-out: Mortality of adult worms
[6] = Schistosoma japonicum, 25 μM, 24 h, read-out: Killing activity 24hr
[7] = Schistosoma japonicum, 25 μM, 48 h, read-out: Killing activity 48hr
[8] = Schistosoma japonicum, 25 μM, 72 h, read-out: Killing activity 72hr
[9] = Schistosoma japonicum, 72 h, read-out: Mortality of juvenile worms

Compound | killing at 2 µM (juvenile S. japonicum; [2]) [%] | killing at 2 µM (juvenile S. japonicum; [3]) [%] | killing at 2 µM (juvenile S. japonicum; [4]) [%] | killing at 5 µM (juvenile S. japonicum; [2]) [%] | killing at 5 µM (juvenile S. japonicum; [3]) [%] | killing at 5 µM (juvenile S. japonicum; [4]) [%] | killing at 50 µM (juvenile S. japonicum; [2]) [%] | killing at 50 µM (juvenile S. japonicum; [3]) [%] | killing at 50 µM (juvenile S. japonicum; [4]) [%] | Killing activity 24hr (juvenile S. japonicum; 24 h) [%D] | Killing activity 48hr (juvenile S. japonicum; 48 h) [%D] | Killing activity 72hr (juvenile S. japonicum; 72 h) [%D] | killing at 25 µM (adult S. japonicum; [7]) [%] | killing at 25 µM (adult S. japonicum; [8]) [%] | killing at 50 µM (adult S. japonicum; [2]) [%] | killing at 50 µM (adult S. japonicum; [3]) [%] | killing at 50 µM (adult S. japonicum; [4]) [%] | killing at 100 µM (adult S. japonicum; [2]) [%] | killing at 100 µM (adult S. japonicum; [3]) [%] | killing at 100 µM (adult S. japonicum; [4]) [%] | also measured
N#Cc1c(-c2ccc(OCCBr)cc2)no[n+]1[O-] [Compound 12] | 17.3 | 17.3 | 19.2 | 16.4 | 18.2 | 23.6 | 33.3 | 36.2 | 72.5 | 21.3 | 21.3 | 28.8 | 100 | 100 | 88.9 | 100 | 100 | 100 | 100 | 100 | mortality at 50 µM (juvenile S. japonicum; [1]): < 30%; mortality at 25 µM (adult S. japonicum; [5]): > 75%; killing at 25 µM (adult S. japonicum; [6]): 80%; Killing activity 24hr (adult S. japonicum; 10 μM, 24 h): sluggish; Killing activity 48hr (adult S. japonicum; 10 μM, 48 h): sluggish; Killing activity 72hr (adult S. japonicum; 10 μM, 72 h): 55.6%D
N#Cc1c(-c2ccc(OCCCBr)cc2)no[n+]1[O-] [Compound 13] | 13 | 13 | 13 | 14.2 | 15.5 | 15.5 | 23.3 | 29.9 | 41 | 19.0 | 19.0 | 20.3 | 100 | 100 | 100 | 100 | 100 | 100 | 100 | 100 | mortality at 50 µM (juvenile S. japonicum; [1]): < 30%; mortality at 50 µM (juvenile S. japonicum; [9]): 41 ± 6.3%; mortality at 50 µM (adult S. japonicum; [5]): 100%; Killing activity 24hr (adult S. japonicum; 10 μM, 24 h): sluggish; Killing activity 48hr (adult S. japonicum; 10 μM, 48 h): 90.0%D; Killing activity 72hr (adult S. japonicum; 10 μM, 72 h): 100%D; Killing activity 24hr (adult S. japonicum; 25 μM, 24 h): sluggish
N#Cc1c(-c2ccc(OC/C=C/CBr)cc2)no[n+]1[O-] [Compound 16] | 14.7 | 22.7 | 25.3 | 16.1 | 21.9 | 34.3 | 31.4 | 60.5 | 72.1 | 20.9 | 27.3 | 39.1 | 75 | 100 | 100 | 100 | 100 | 100 | 100 | 100 | mortality at 50 µM (juvenile S. japonicum; [1]): < 30%; mortality at 50 µM (juvenile S. japonicum; [9]): 72.1 ± 3.7%; mortality at 50 µM (adult S. japonicum; [5]): 100%; killing at 25 µM (adult S. japonicum; [6]): 50%; Killing activity 24hr (adult S. japonicum; 10 μM, 24 h): n.e.; Killing activity 48hr (adult S. japonicum; 10 μM, 48 h): 50.0%D; Killing activity 72hr (adult S. japonicum; 10 μM, 72 h): 80.0%D
N#Cc1c(-c2ccc(OCc3ccccc3)cc2)no[n+]1[O-] [Compound 19] | 15.1 | 15.1 | 17 | 12.5 | 19.2 | 28.8 | 82.5 | 92.8 | 100 | 43.8 | 50.0 | 65.0 | 100 | 100 | 100 | 100 | 100 | 100 | 100 | 100 | mortality at 25 µM (adult S. japonicum; [5]): > 75%; killing at 25 µM (adult S. japonicum; [6]): 100%; Killing activity 24hr (adult S. japonicum; 10 μM, 24 h): 80.0%D; Killing activity 48hr (adult S. japonicum; 10 μM, 48 h): 100%D; Killing activity 72hr (adult S. japonicum; 10 μM, 72 h): 100%D
C#CCOc1ccc(-c2no[n+]([O-])c2C#N)cc1 [Compound 20] | 8.5 | 14.2 | 19.9 | 20 | 24 | 34 | 45.6 | 48.5 | 67.6 | 43.4 | 45.3 | 52.8 | 100 | 100 | 70 | 100 | 100 | 100 | 100 | 100 | mortality at 100 µM (juvenile S. japonicum; [9]): 67.6 ± 4.5%; mortality at 100 µM (adult S. japonicum; Schistosoma japonicum, read-out: Mortality of adult worms): 100%; killing at 25 µM (adult S. japonicum; [6]): 50%; Killing activity 24hr (adult S. japonicum; 10 μM, 24 h): n.e.; Killing activity 48hr (adult S. japonicum; 10 μM, 48 h): 50.0%D; Killing activity 72hr (adult S. japonicum; 10 μM, 72 h): 75.0%D
